Results as given in PubChem BioAssay AID330 (DTP/NCI, 2004).
Several values for one entry are separate records, joined by “and”; a condition that tells them apart may be missing. Equal entries are not always repeated. Toxic doses and inconclusive results are not listed. How the source made its calls: active means survival T/C of 150% or more; inactive means T/C below 125% in these data.

Test system: P388 leukemia ip, CD2F1 mice, survival T/C
Assay: NCI In Vivo Anticancer Drug Screen. Data for tumor model P388 Leukemia (intraperitoneal) in CD2F1 (CDF1) mice
Conditions: endpoint: median survival time, higher = longer survival
Method: The antitumor activity of compounds was measured in mice bearing transplantable tumors. Survival or tumor size were measured and the results are expressed as the measurement made in the treated group (T) divided by the measurement made in the vehicle treated control group (C). The tumor model used in this assay is P388 Leukemia (intraperitoneal) in CD2F1 (CDF1) mice

[1] = dose: 50.0 mg/kg/injection, schedule: Q01DX005 (ip), vehicle: saline with Tween-80
[2] = dose: 50.0 mg/kg/injection, schedule: Q01DX005 (ip), vehicle: Klucel (hydroxypropylcellulose) (HPC)
[3] = dose: 100.0 mg/kg/injection, schedule: Q01DX005 (ip), vehicle: Klucel (hydroxypropylcellulose) (HPC)
[4] = dose: 200.0 mg/kg/injection, schedule: Q01DX005 (ip), vehicle: Klucel (hydroxypropylcellulose) (HPC)
[5] = dose: 50.0 mg/kg/injection, schedule: Q01DX009 (ip), vehicle: Klucel (hydroxypropylcellulose) (HPC)
[6] = dose: 60.0 mg/kg/injection, schedule: Q01DX005 (ip), vehicle: saline with Tween-80
[7] = dose: 120.0 mg/kg/injection, schedule: Q01DX005 (ip), vehicle: saline with Tween-80
[8] = dose: 240.0 mg/kg/injection, schedule: Q01DX005 (ip), vehicle: saline with Tween-80
[9] = dose: 100.0 mg/kg/injection, schedule: Q01DX005 (ip), vehicle: saline with Tween-80
[10] = dose: 200.0 mg/kg/injection, schedule: Q01DX005 (ip), vehicle: saline with Tween-80

Measured: T/C

O=C(CC(O)CCc1ccc(O)c(O)c1)O[C@H]1Cc2c(O)cc(O)cc2O[C@H]1c1ccc(O)c(O)c1 (stereo partly drawn)
inactive: dose: 20.0 mg/kg/injection, schedule: Q01DX005 (ip), vehicle: saline with Tween-80 105 % of control | dose: 40.0 mg/kg/injection, schedule: Q01DX005 (ip), vehicle: saline with Tween-80 105 % of control | dose: 80.0 mg/kg/injection, schedule: Q01DX005 (ip), vehicle: saline with Tween-80 100 % of control

O=S(=O)(O)O.[W]
inactive: dose: 0.38 mg/kg/injection, schedule: Q01DX009 (ip), vehicle: saline with Tween-80 91 % of control | dose: 0.38 mg/kg/injection, schedule: Q01DX009 (ip), vehicle: saline 99 % of control | dose: 0.75 mg/kg/injection, schedule: Q01DX009 (ip), vehicle: saline 89 % of control and 96 % of control | dose: 1.5 mg/kg/injection, schedule: Q01DX009 (ip), vehicle: saline with Tween-80 100 % of control | dose: 1.5 mg/kg/injection, schedule: Q01DX009 (ip), vehicle: saline 98 % of control and 86 % of control | dose: 3.0 mg/kg/injection, schedule: Q01DX009 (ip), vehicle: saline with Tween-80 87 % of control | dose: 3.0 mg/kg/injection, schedule: Q01DX009 (ip), vehicle: saline 89 % of control and 94 % of control

COC1=C(N)C(=O)c2ncccc2C1=O
inactive: dose: 3.12 mg/kg/injection, schedule: Q01DX009 (ip), vehicle: saline with Tween-80 101 % of control | dose: 4.0 mg/kg/injection, schedule: Q01DX009 (ip), vehicle: DMSO 100 % of control | dose: 6.25 mg/kg/injection, schedule: Q01DX009 (ip), vehicle: saline with Tween-80 95 % of control | dose: 8.0 mg/kg/injection, schedule: Q01DX009 (ip), vehicle: DMSO 108 % of control | dose: 12.5 mg/kg/injection, schedule: Q01DX009 (ip), vehicle: saline with Tween-80 94 % of control | dose: 16.0 mg/kg/injection, schedule: Q01DX009 (ip), vehicle: DMSO 102 % of control

CCc1ccc[n+](CCC2CNc3ccccc32)c1 (stereo not drawn)
inactive: dose: 12.5 mg/kg/injection, schedule: Q01DX005 (ip), vehicle: saline 98 % of control | dose: 25.0 mg/kg/injection, schedule: Q01DX005 (ip), vehicle: saline 100 % of control | dose: 50.0 mg/kg/injection, schedule: Q01DX005 (ip), vehicle: saline 100 % of control and 110 % of control

CCCCCCCCCCCCCCCC(=O)NCC(=O)NC1C(CO)OC(Nc2ncnc3nc[nH]c23)C(O)C1O (stereo not drawn)
inactive: dose: 0.13 mg/kg/injection, schedule: Q01DX009 (ip), vehicle: water 110 % of control | dose: 0.25 mg/kg/injection, schedule: Q01DX009 (ip), vehicle: water 107 % of control | dose: 1.0 mg/kg/injection, schedule: Q01DX009 (ip), vehicle: water 96 % of control | dose: 2.0 mg/kg/injection, schedule: Q01DX009 (ip), vehicle: water 98 % of control

CN(C)C1CC/C=C/CC/C=C/CC[C@H]1O (mixture of isomers)
inactive: dose: 12.5 mg/kg/injection, schedule: Q01DX005 (ip), vehicle: saline with Tween-80 100 % of control | dose: 25.0 mg/kg/injection, schedule: Q01DX005 (ip), vehicle: saline with Tween-80 98 % of control | [1] 99 % of control and 100 % of control

CCOC(OCC)c1cccc([N+](=O)[O-])c1
inactive: dose: 100.0 mg/kg/injection, schedule: Q04DX003 (ip), vehicle: saline with Tween-80 112 % of control | dose: 200.0 mg/kg/injection, schedule: Q04DX003 (ip), vehicle: saline with Tween-80 106 % of control | dose: 400.0 mg/kg/injection, schedule: Q04DX003 (ip), vehicle: saline with Tween-80 117 % of control

CNC(=O)OCc1c(COC(=O)NC)c(-c2ccc(Cl)c(Cl)c2)n2c1SCC2
inactive: [1] 106 % of control and 123 % of control

CSC(=O)/N=C(/NC(=O)c1ccccc1)SC
inactive: [2] 93 % of control | [3] 91 % of control | [4] 92 % of control

CS/C(=C/c1ccc2ccccc2[n+]1C)N1CCSCC1
inactive: dose: 1.56 mg/kg/injection, schedule: Q01DX005 (ip), vehicle: saline with Tween-80 108 % of control | dose: 3.13 mg/kg/injection, schedule: Q01DX005 (ip), vehicle: saline with Tween-80 113 % of control | dose: 6.25 mg/kg/injection, schedule: Q01DX005 (ip), vehicle: saline with Tween-80 113 % of control

CCN(CC)CCNC(=S)NNc1nc(C)ccc1[N+](=O)[O-]
inactive: dose: 12.5 mg/kg/injection, schedule: Q01DX009 (ip), vehicle: Klucel (hydroxypropylcellulose) (HPC) 99 % of control | dose: 25.0 mg/kg/injection, schedule: Q01DX009 (ip), vehicle: Klucel (hydroxypropylcellulose) (HPC) 95 % of control | [5] 87 % of control and 97 % of control

O=C1Nc2ccccc2NC(=O)C(=C(c2ccccc2)c2ccccc2)C1=C(c1ccccc1)c1ccccc1
inactive: [6] 90 % of control | [7] 89 % of control | [8] 89 % of control

CC(=O)C(=N/O)/C(C)=N/NC(=O)c1ccncc1
inactive: dose: 100.0 mg/kg/injection, schedule: Q04DX002 (ip), vehicle: saline 106 % of control | dose: 200.0 mg/kg/injection, schedule: Q04DX002 (ip), vehicle: saline 103 % of control | dose: 400.0 mg/kg/injection, schedule: Q04DX002 (ip), vehicle: saline 102 % of control

CC1(C)CSCC(C)(C)C2(C=CC=CC=N2)C1=O (stereo not drawn)
inactive: [2] 107 % of control | [3] 115 % of control

CCOc1ccc(C(CC(=O)O)CC(=O)N(CCCl)CCCl)cc1 (stereo not drawn)
inactive: dose: 100.0 mg/kg/injection, schedule: Q04DX003 (ip), vehicle: suspension in saline 101 % of control | dose: 200.0 mg/kg/injection, schedule: Q04DX003 (ip), vehicle: suspension in saline 102 % of control | dose: 400.0 mg/kg/injection, schedule: Q04DX003 (ip), vehicle: suspension in saline 105 % of control

COc1cc(C2=[N+](C)CCc3cc4c(cc32)OCO4)cc(OC)c1OC
inactive: [2] 99 % of control | [3] 103 % of control

Nc1ncnn1Cc1ccccc1
inactive: dose: 25.0 mg/kg/injection, schedule: Q01DX009 (ip), vehicle: saline with Tween-80 104 % of control | dose: 50.0 mg/kg/injection, schedule: Q01DX009 (ip), vehicle: saline with Tween-80 100 % of control | dose: 100.0 mg/kg/injection, schedule: Q01DX009 (ip), vehicle: saline with Tween-80 101 % of control | dose: 200.0 mg/kg/injection, schedule: Q01DX009 (ip), vehicle: saline with Tween-80 102 % of control

C=Cc1c(C#N)nc(C)c(C)c1-c1ccc(OC)c(OC)c1OCc1ccccc1
inactive: [2] 101 % of control | [3] 95 % of control | [4] 108 % of control

COC(=O)C1=COC(C)C2CN3CCc4c([nH]c5cc(OC)c(OC)cc45)C3CC12 (stereo not drawn)
inactive: [1] 101 % of control | [9] 102 % of control | [10] 115 % of control

CC1=N/C(=C\c2ccccc2O)C(=O)O1
inactive: [2] 104 % of control | [3] 98 % of control | [4] 98 % of control

COC(=O)c1nnn(-c2cc(Cl)ccc2Cl)c1C(=O)c1ccc(Cl)c(Cl)c1
inactive: [6] 99 % of control | [7] 96 % of control | [8] 87 % of control

CC1=NN=C(C)C1=Cc1ccccc1[N+](=O)[O-]
inactive: [5] 99 % of control | dose: 100.0 mg/kg/injection, schedule: Q01DX009 (ip), vehicle: Klucel (hydroxypropylcellulose) (HPC) 95 % of control | dose: 200.0 mg/kg/injection, schedule: Q01DX009 (ip), vehicle: Klucel (hydroxypropylcellulose) (HPC) 101 % of control

Cc1ncc(C(=O)O)c2c1OC(C)(C)OC2
inactive: [1] 104 % of control | [9] 100 % of control | [10] 98 % of control

CN(C)c1nc(NC=O)nc(N(C)C)n1
inactive: dose: 50.0 mg/kg/injection, schedule: Q04DX002 (ip), vehicle: saline with Tween-80 99 % of control | dose: 100.0 mg/kg/injection, schedule: Q04DX002 (ip), vehicle: saline with Tween-80 99 % of control | dose: 200.0 mg/kg/injection, schedule: Q04DX002 (ip), vehicle: saline with Tween-80 100 % of control

O=c1n(-c2ccccc2)c(=O)n2n1C1C=CC2C23C=CC12CCCC3 (stereo not drawn)
inactive: dose: 100.0 mg/kg/injection, schedule: Q04DX003 (ip), vehicle: Klucel (hydroxypropylcellulose) (HPC) 96 % of control | dose: 200.0 mg/kg/injection, schedule: Q04DX003 (ip), vehicle: Klucel (hydroxypropylcellulose) (HPC) 96 % of control | dose: 400.0 mg/kg/injection, schedule: Q04DX003 (ip), vehicle: Klucel (hydroxypropylcellulose) (HPC) 96 % of control

CC1(C)O[Se](=O)OC1(C)C
inactive: dose: 1.56 mg/kg/injection, schedule: Q04DX003 (ip), vehicle: saline 103 % of control | dose: 3.12 mg/kg/injection, schedule: Q04DX003 (ip), vehicle: saline 98 % of control | dose: 6.25 mg/kg/injection, schedule: Q04DX003 (ip), vehicle: saline 90 % of control
